Patent US11834446B2, “Methods and compositions useful in treating cancer and reducing Wnt mediated effects in a cell” (StemSynergy Therapeutics, Inc., priority 2009, dated 2023)
pEC50: −log10 of the molar value.

These compounds were tested on Wnt reporter (TCF/LEF1 promoter) in HEK STF293 cells (assay: HEK STF293 Wnt reporter (luciferase) assay). Settings: Homo sapiens, STF/293, Wnt3a-conditioned media, Steady Glo normalized to Cell Titer.
Type: cell-based
Experimental: Screening with STF293 and SW480STF. HEK STF293 cells are seeded at approximately 25,000-30,000 cells/well in a 96-well (100 uL volume). On the first day, Wnt3a-conditioned media (1:1) will be added along with diluted compounds (1:100). For example, for 100 ul of STF293 cells, 100 ul of Wnt3a-conditioned media and 2 ul of drug will be added to each well. The final concentrations should therefore be 100 μM, 30 μM, 10 μM, 3 μM, 1 μM, 300 nM, 100 nM, 30 nM, 10 nM, 3 nM, 1 nM, and 0.3 nM. On the second day, the media is removed and 75 ul of Passive Lysis Buffer (Promega) is added to each well. The plate will be shaken at 130 rpm for 15 minutes. For the Steady Glo assay, 45 ul of the lysis is removed and added to a white 96-well plate containing 45 uL/well of Steady Glo solution (Promega). For the Cell Titer assay, 25 ul of the lysis is transferred to a white 96-well plate containing 25 ul/well of Cell Titer solution (Promega). Both Steady Glo and Cell Titer assays will be read with a luminescence plate reader. When determining EC50, the Steady Glo values will be divided by the Cell Titer values to normalize for cell number and the resulting values plotted in a dose-response curve.
Experimental. All compounds were tested using the human cell line HEK STF293. This cell line carries a Wnt reporter (TCF/LEF1 promoter), which drives expression of the firefly luciferase protein. The level of Wnt activity is directly correlated with the level of luciferase activity (determined using a simple assay). Compounds that inhibit Wnt signaling by reducing luciferase activity in these two cell lines are further tested biochemically.
Compounds were prepared as 10 mM stocks for each compound in DMSO. Dilutions were prepared in a 96-well plate in DMSO. The stock dilutions are as follows: 10 mM, 1 mM, […]. Plates were sealed and stored at −20 C.
HEK STF293 cells were seeded at approximately 25,000-30,000 cells/well in a 96-well (100 uL volume). On the first day, Wnt3a-conditioned media (1:1) were added along with diluted compounds (1:100). For example, for 100 ul of STF293 cells, 100 ul of Wnt3a-conditioned media and 2 ul of drug was added to each well. The final concentrations should therefore be 100 uM, 10 uM, 1 uM, 100 nM, 10 nM, and 1 nM. On the second day, the media is removed and 75 ul of Passive Lysis Buffer (Promega) is added to each well. The plate is shaken at 130 rpm for 15 minutes. For the Steady Glo assay, 45 ul of the lysis is removed and added to a white 96-well plate containing 45 uL/well of Steady Glo solution (Promega). For the Cell Titer assay, 25 ul of the lysis is transferred to a white 96-well plate containing 25 ul/well of Cell Titer solution (Promega). Both Steady Glo and Cell Titer assays were read with a luminescence plate reader. When determining EC50, the Steady Glo values were divided by the Cell Titer values to normalize for cell number.
For `Cc1ccc(NS(=O)(=O)c2ccc(NC(=O)c3n[nH]c4c3CCc3ccccc3-4)cc2)cc1`, the pEC50 was less than 7.00.
`COc1ccccc1-c1cc(C(=O)Nc2c(C)nn(Cc3ccc(F)cc3)c2C)no1` showed a pEC50 of less than 7.00.
For `NC(=O)c1ccccc1NC(=O)c1ccc(S(=O)(=O)Nc2ccccc2)cc1`, the pEC50 was less than 7.00.
For `Cc1nn(Cc2ccccc2)c(C)c1NC(=O)c1cc(-c2ccc(Br)cc2)on1`, the pEC50 was no less than 7.00.
In the case of `O=C(Nc1nc(-c2ccccn2)cs1)c1ccc(S(=O)(=O)N2CCCc3ccccc32)cc1`, the pEC50 was no less than 7.00.
For `Cc1sc(NC(=O)c2ccc(S(=O)(=O)N3CCc4ccccc43)cc2)nc1-c1ccccc1`, the pEC50 was less than 7.00.
In the case of `Cc1nn(Cc2ccc(F)cc2)c(C)c1NC(=O)c1cc(-c2ccc(F)cc2)on1`, the pEC50 was less than 7.00.
In the case of `Cc1ccc(C)c(NS(=O)(=O)c2ccc(NC(=O)c3n[nH]c4c3CCc3ccccc3-4)cc2)c1`, the pEC50 was less than 7.00.
`COc1cc2nc(NC(=O)c3ccc(S(=O)(=O)N(C)c4ccccc4)cc3)sc2cc1OC` showed a pEC50 of less than 7.00.
In the case of `O=C(Nc1ccc(F)cc1)c1ccc(S(=O)(=O)N2CCc3ccccc32)cc1`, the pEC50 was less than 7.00.
For `Cc1nn(Cc2ccccc2)c(C)c1NC(=O)c1cc2n(n1)C(C(F)(F)F)CC(c1ccccc1)N2` (stereo not drawn), the pEC50 was no less than 7.00.
In the case of `COc1cc2nc(NC(=O)c3ccc(S(=O)(=O)N4CCc5ccccc54)cc3)sc2cc1OC`, the pEC50 was less than 7.00.
